PMC12484856, “A Self-Assembling Senolytic Prodrug with Enhanced Bioavailability and Selective Activation for Targeting Senescent Retinal Pigment Epithelium” (Biomaterials Research, 2025)

Target: T1, MDM2 (Homo sapiens, UniProt Q00987)
T1 construct: MDM2 (Abcam, ab167941)
Experiment: fluorescence polarization competition with FITC-p53 peptide
Format: binding
Excerpt: fluorescence polarization competition with FITC-p53 peptide on MDM2 | analysis of the interaction of N201 with MDM2 instead of with fluorescein isothiocyanate (FITC)–p53.

T1 sequence (Q00987 whole entry): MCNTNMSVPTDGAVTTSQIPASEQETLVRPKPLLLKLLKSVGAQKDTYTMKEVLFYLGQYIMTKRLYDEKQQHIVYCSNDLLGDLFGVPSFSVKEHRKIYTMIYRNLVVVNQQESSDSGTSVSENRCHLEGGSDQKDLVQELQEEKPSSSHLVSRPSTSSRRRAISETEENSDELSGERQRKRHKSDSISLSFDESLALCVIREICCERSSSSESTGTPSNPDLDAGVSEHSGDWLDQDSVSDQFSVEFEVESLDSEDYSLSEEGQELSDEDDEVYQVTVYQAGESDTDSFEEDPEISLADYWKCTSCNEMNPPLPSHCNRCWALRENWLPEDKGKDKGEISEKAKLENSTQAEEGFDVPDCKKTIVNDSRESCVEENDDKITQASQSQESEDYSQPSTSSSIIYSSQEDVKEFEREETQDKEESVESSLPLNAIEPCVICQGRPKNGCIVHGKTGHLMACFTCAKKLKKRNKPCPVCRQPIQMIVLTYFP

Structure (SMILES)	IC50 [nM]
COc1ccc(C2=NC(c3ccc(Cl)cc3)C(c3ccc(Cl)cc3)N2C(=O)N2CCN(CCO[C@@H]3O[C@H](CO)[C@H](O)[C@H](O)[C@H]3O)CC2)c(OC(C)C)c1 (some centres unmarked) [N201-gal]	200
COc1ccc(C2=NC(c3ccc(Cl)cc3)C(c3ccc(Cl)cc3)N2C(=O)N2CCN(CCO)CC2)c(OC(C)C)c1 (centres unmarked) [N201]	130
